Experimental data as given in the supplement of paper PMC10307832.

Legend:
Test in all cases: relative viability (nuclei count vs DMSO), 5 days (fraction); higher = more cells survive
[1] = compound: C[C@]1(O)C[C@@H](c2nc(-c3ccc4ccc(-c5ccccc5)nc4c3)c3c(N)nccn32)C1 [Linsitinib] + Cc1nc(Nc2ncc(C(=O)Nc3c(C)cccc3Cl)s2)cc(N2CCN(CCO)CC2)n1 [Dasatinib] (partner 0.075 µM)
How it was run: (§1)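 Lung cancer cell lines were pin-tool dosed in 1536-well plates on the day after seeding, with either a lone drug or a fixed anchor-drug dose plus five library-drug doses (not always all listed) in √10 steps. Nuclei were counted on 4× images after 5 days. Relative viability is the ratio of treated-well to vehicle-well nuclei counts, with each value a median of duplicate plates.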

[2] = compound: Cc1ccc(C(=O)N(CCCN)[C@@H](c2nc3cc(Cl)ccc3c(=O)n2Cc2ccccc2)C(C)C)cc1 [Ispinesib] + CC(=O)c1c(C)c2cnc(Nc3ccc(N4CCNCC4)cn3)nc2n(C2CCCC2)c1=O [Palbociclib] (partner 0.5 µM)
How it was run: as §1

[3] = compound: C[C@]1(O)C[C@@H](c2nc(-c3ccc4ccc(-c5ccccc5)nc4c3)c3c(N)nccn32)C1 [Linsitinib] + Cc1nc(NC(=O)N2CCC[C@H]2C(N)=O)sc1-c1ccnc(C(C)(C)C(F)(F)F)c1 [Alpelisib] (partner 2 µM)
How it was run: as §1

[4] = compound: C[C@]1(O)C[C@@H](c2nc(-c3ccc4ccc(-c5ccccc5)nc4c3)c3c(N)nccn32)C1 [Linsitinib] + CS(=O)(=O)N1CCN(Cc2cc3nc(-c4cccc5[nH]ncc45)nc(N4CCOCC4)c3s2)CC1 [Pictilisib] (partner 1 µM)
How it was run: as §1

Cell Line | relative viability ([1]; first compound 0.01 µM) | relative viability ([1]; first compound 0.03162 µM) | relative viability ([1]; first compound 0.1 µM) | relative viability ([1]; first compound 1 µM) | relative viability ([2]; first compound 0.001 µM) | relative viability ([2]; first compound 0.003162 µM) | relative viability ([2]; first compound 0.01 µM) | relative viability ([2]; first compound 0.03162 µM) | relative viability ([2]; first compound 0.1 µM) | relative viability ([3]; first compound 0.01 µM) | relative viability ([3]; first compound 0.03162 µM) | relative viability ([3]; first compound 0.1 µM) | relative viability ([3]; first compound 0.3162 µM) | relative viability ([3]; first compound 1 µM) | relative viability ([4]; first compound 0.01 µM) | relative viability ([4]; first compound 0.03162 µM) | relative viability ([4]; first compound 0.1 µM) | relative viability ([4]; first compound 0.3162 µM) | relative viability ([4]; first compound 1 µM) | relative viability ([1]; first compound 0.3162 µM)
NCI-H2009 | 0.285 | 0.262 | 0.274 | 0.2 | 0.234 | 0.153 | 0.222 | 0.113 | 0.169 | 1.17 | 1.17 | 1.2 | 1.03 | 1.13 | 0.946 | 0.796 | 0.833 | 0.101 | 0.687 | –
NCI-H2023 | 0.472 | 0.373 | 0.528 | 0.218 | 0.462 | 0.392 | 0.383 | 0.145 | 0.138 | 0.533 | 0.426 | 0.502 | 0.425 | 0.392 | 0.233 | 0.18 | 0.172 | 0.0774 | 0.147 | 0.29
NCI-H2085 | 0.275 | 0.257 | 0.22 | 0.23 | 0.384 | 0.411 | 0.481 | 0.469 | 0.402 | 0.886 | 1.12 | 1.06 | 0.888 | 0.922 | 0.431 | 0.462 | 0.426 | 0.466 | 0.471 | 0.246
NCI-H2087 | 0.756 | 0.917 | 0.819 | 0.624 | 0.206 | 0.224 | 0.262 | 0.172 | 0.112 | 1.06 | 1.2 | 1.02 | 0.853 | 0.815 | 0.92 | 0.906 | 0.723 | 0.294 | 0.775 | 0.549
NCI-H2126 | 0.596 | 0.649 | 0.527 | 0.27 | 0.335 | 0.393 | 0.314 | 0.339 | 0.385 | 0.726 | 0.801 | 0.743 | 0.682 | 0.717 | 0.489 | 0.486 | 0.459 | 0.389 | 0.359 | 0.273
NCI-H2170 | 0.56 | 0.569 | 0.519 | 0.488 | 0.402 | 0.36 | 0.431 | 0.282 | 0.257 | 0.865 | 0.777 | 0.698 | 0.745 | 0.68 | 0.336 | 0.317 | 0.308 | 0.26 | 0.23 | 0.409
NCI-H2228 | 0.48 | 0.483 | 0.52 | 0.387 | 1 | 1.05 | 1.08 | 0.544 | 0.386 | 0.594 | 0.746 | 0.723 | 0.493 | 0.586 | 0.425 | 0.382 | 0.28 | 0.239 | 0.27 | 0.421
NCI-H2347 | 0.3 | 0.339 | 0.317 | 0.3 | 0.406 | 0.388 | 0.423 | 0.395 | 0.419 | 1.01 | 1.21 | 1.01 | 0.595 | 0.902 | 0.802 | 0.609 | 0.597 | 0.695 | 0.717 | –
